This is an account of results in paper PMC4193892, “3-O-Galloylated Procyanidins from Rumex acetosa L. Inhibit the Attachment of Influenza A Virus” (PLoS ONE, 2014).

Read-outs that look alike come from different tables or passages of the source.

Data set [1] deals with recombinant IAV laboratory strain A/Puerto Rico/8/34-NS116-GFP. Conditions: cited from earlier work.
A further data set has as its system IAV(H1N1)pdm09. Also on record: method as in PMID 24498245. Conditions: preincubation of particles for 2 h with 50 µg/mL (265 µM); A549 cells; cited from earlier work.
Data set [2] has as its system IAV(H1N1)pdm09 isolate I1. Description: microbe, parasite or virus in culture. The class given is cell-based, influenza A virus. Conditions: for inhibition at 2 µM / inhibition at 20 µM / inhibition at 200 µM: H1N1, 48 h, read-out: anti-IAV activity.
For a further data set, the target named is IAV neuraminidase. The settings on record: cited from earlier work.
Another data set relates to MDCK II cells. Description: cells. Conditions: Canis lupus familiaris, 48 h, read-out: cell vitality.

Broadly, the EC50 is the concentration needed to bring the measured effect to its halfway point. By IC50 is commonly meant the concentration that inhibits the measured activity by half. Regarding `O=C(O)c1cc(O)c(O)c(O)c1` [compound 17, gallic acid monohydrate, reference compound], the EC50 in data set [1] is roughly 50 µM. For the same compound, the “effect on virus replication” value in the data set with IAV(H1N1)pdm09 is recorded as “only little effect”. In data set [2] (Influenza A virus, H1N1), this compound yielded a 50% inhibitory concentration (IC50) greater than 200 µM. Besides, in data set [2] (Influenza A virus), the inhibition at 2 µM amounted to 0%, the inhibition at 20 µM was -1% and the inhibition at 200 µM is 14 ± 11%. The same compound had a CC50 at 48 h in the data set “in vitro” of 197 µM. Also, the half-inhibitory concentration (IC50) at IAV neuraminidase is greater than 500 µM. Further, in the data set with MDCK II cells, the viability at 2 µM came out at 106 ± 5%, the viability at 20 µM came to 107 ± 8% and the viability at 200 µM amounted to 49 ± 18%.
`O=C(O[C@@H]1O[C@@H]2COC(=O)c3cc(O)c(O)c(O)c3-c3c(cc(O)c(O)c3O)C(=O)O[C@H]([C@H]1O)[C@@H]2O)c1cc(O)c(O)c(O)c1` [compound 14, corilagin, reference compound]: the half-maximal inhibitory concentration (IC50) entry in data set [2] was “uncalc. ^3”. In addition, in data set [2] (Influenza A virus), the inhibition at 2 µM was 0%, the inhibition at 20 µM is 1% and the inhibition at 200 µM was 3 ± 2%. This compound also registered a CC50 at 48 h in “in vitro” (dog) of 120 µM. Moreover, in the data set with MDCK II cells, the viability at 2 µM is 101 ± 1%, the viability at 20 µM stood at 103 ± 1% and the viability at 200 µM turned out to be 8 ± 1%.
In data set [2] (Influenza A virus, H1N1), `Oc1cc(O)c2c(c1)O[C@H](c1ccc(O)c(O)c1)[C@H](O)[C@H]2c1c(O)cc2c(c1O)C[C@@H](O)[C@@H](c1ccc(O)c(O)c1)O2` [compound 9, epicatechin-(4β→6)-epicatechin] came in with an IC50 of no more than 163 µM. For the same compound, in data set [2] (Influenza A virus), the inhibition at 2 µM stood at 0%, the inhibition at 20 µM was 0% and the inhibition at 200 µM stood at 63 ± 4%. For the same compound, the CC50 at 48 h in “in vitro” (dog) was greater than 200 µM. In the data set on MDCK II cells, the viability at 2 µM was found to be 100 ± 3%, the viability at 20 µM was determined as 84 ± 4% and the viability at 200 µM was found to be 57 ± 4%.
`O=C1O[C@H]2[C@@H]3OC(=O)c4cc(O)c(O)c(O)c4-c4c(cc(O)c(O)c4O)C(=O)OC[C@H]2O[C@@H](OC(=O)c2cc(O)c(O)c(O)c2)[C@@H]3OC(=O)c2cc(O)c(O)c3c2[C@@H]2C1=CC(=O)[C@](O)(O3)C2(O)O` [compound 13, geraniin, reference compound] returned a 50% inhibitory concentration (IC50) in data set [2] (Influenza A virus, H1N1) of no more than 388 µM. In data set [2] (Influenza A virus), the inhibition at 2 µM was found to be 0%, the inhibition at 20 µM amounted to 1 ± 1% and the inhibition at 200 µM was 25%. Besides, the CC50 at 48 h in “in vitro” (dog) was 162 µM. Further, in the data set with MDCK II cells, the viability at 2 µM came out at 99 ± 1%, the viability at 20 µM came to 107 ± 2% and the viability at 200 µM is 35 ± 3%.
In turn, `O=C(OC[C@H]1O[C@@H](OC(=O)c2cc(O)c(O)c(O)c2)[C@H](OC(=O)c2cc(O)c(O)c(O)c2)[C@@H](OC(=O)c2cc(O)c(O)c(O)c2)[C@@H]1OC(=O)c1cc(O)c(O)c(O)c1)c1cc(O)c(O)c(O)c1` [compound 12, 1,2,3,4,6-penta-O-galloyl-β-D-glucose, reference compound] came in with an IC50 in data set [2] of no more than 22 µM. In data set [2] (Influenza A virus, H1N1), the IC50 was determined as 22 µM. In data set [2] (Influenza A virus), the inhibition at 2 µM was found to be 3 ± 3%, the inhibition at 20 µM came to 46 ± 9% and the inhibition at 200 µM was found to be 35 ± 1%. Besides, in “in vitro”, the CC50 at 48 h amounted to 83 µM. In the data set with MDCK II cells, the viability at 2 µM is 91 ± 7%, the viability at 20 µM was found to be 57 ± 14% and the viability at 200 µM is 37 ± 3%.
The compound `Oc1cc(O)c2c(c1)O[C@H](c1ccc(O)c(O)c1)[C@H](O)[C@H]2c1c(O)cc(O)c2c1O[C@H](c1ccc(O)c(O)c1)[C@H](O)C2` [compound 7, epicatechin-(4β→8)-epicatechin] registered an IC50 in data set [2] (Influenza A virus, H1N1) greater than 200 µM. Further, in data set [2] (Influenza A virus), the inhibition at 2 µM came out at 0%, the inhibition at 20 µM is 0% and the inhibition at 200 µM is 1 ± 1%. In the data set “in vitro” (dog), the CC50 at 48 h is greater than 200 µM. Also, in the data set on MDCK II cells, the viability at 2 µM turned out to be 107 ± 6%, the viability at 20 µM amounted to 108 ± 9% and the viability at 200 µM was 117 ± 8%.
`Oc1cc(O)c2c(c1)O[C@H](c1cc(O)c(O)c(O)c1)[C@@H](O)C2` [compound 3, gallocatechin] displayed an IC50 in data set [2] (Influenza A virus, H1N1) of no more than 156 µM. In data set [2] (Influenza A virus), the inhibition at 2 µM amounted to 0%, the inhibition at 20 µM came out at 0% and the inhibition at 200 µM is 66 ± 5%. In addition, the CC50 at 48 h in the data set “in vitro” was greater than 200 µM. Moreover, in the data set with MDCK II cells, the viability at 2 µM was found to be 106 ± 5%, the viability at 20 µM was determined as 108 ± 1% and the viability at 200 µM turned out to be 75 ± 17%.
In data set [2] (Influenza A virus, H1N1), `O=c1oc2c(O)c(O)cc3c(=O)oc4c(O)c(O)cc1c4c23` [compound 15, ellagic acid, reference compound] displayed an IC50 greater than 200 µM. Further, in data set [2] (Influenza A virus), the inhibition at 2 µM turned out to be 0%, the inhibition at 20 µM was determined as 1 ± 1% and the inhibition at 200 µM was found to be 4 ± 1%. In “in vitro”, this compound displayed a CC50 at 48 h greater than 200 µM. Also, in the data set with MDCK II cells, the viability at 2 µM is 106 ± 1%, the viability at 20 µM turned out to be 110 ± 3% and the viability at 200 µM came to 108 ± 2%.
For `Oc1cc(O)c2c(c1)O[C@H](c1cc(O)c(O)c(O)c1)[C@H](O)C2` [compound 4, epigallocatechin], in data set [2] (Influenza A virus, H1N1), the IC50 was greater than 200 µM. In addition, in data set [2] (Influenza A virus), the inhibition at 2 µM worked out at 0%, the inhibition at 20 µM was 0% and the inhibition at 200 µM is 26 ± 22%. The CC50 at 48 h in “in vitro” was greater than 200 µM. For the same compound, in the data set with MDCK II cells, the viability at 2 µM came out at 101 ± 4%, the viability at 20 µM is 106 ± 1% and the viability at 200 µM came out at 86 ± 17%.
With `Oc1cc(O)c2c(c1)O[C@H](c1ccc(O)c(O)c1)[C@@H](O)C2` [compound 1, (+)-catechin monohydrate], the half-inhibitory concentration (IC50) in data set [2] (Influenza A virus, H1N1) was greater than 200 µM. Also, in data set [2] (Influenza A virus), the inhibition at 2 µM was 0%, the inhibition at 20 µM worked out at 0% and the inhibition at 200 µM came out at 0%. In addition, the CC50 at 48 h in the data set “in vitro” is greater than 200 µM. For the same compound, in the data set with MDCK II cells, the viability at 2 µM was found to be 105 ± 3%, the viability at 20 µM was determined as 102 ± 5% and the viability at 200 µM worked out at 119 ± 9%.
Compound `Oc1cc(O)c2c(c1)O[C@H](c1ccc(O)c(O)c1)[C@H](O)[C@H]2c1c(O)cc(O)c2c1O[C@H](c1ccc(O)c(O)c1)[C@H](O)[C@H]2c1c(O)cc(O)c2c1O[C@H](c1ccc(O)c(O)c1)[C@H](O)C2` [compound 10, epicatechin-(4β→8)-epicatechin-(4β→8)-epicatechin] registered a half-maximal inhibitory concentration (IC50) in data set [2] (Influenza A virus, H1N1) of 123 µM. In data set [2] (Influenza A virus), the inhibition at 2 µM turned out to be 0%, the inhibition at 20 µM was found to be 0% and the inhibition at 200 µM amounted to 87 ± 5%. The CC50 at 48 h in “in vitro” (dog) is greater than 200 µM. In addition, in the data set on MDCK II cells, the viability at 2 µM was 104 ± 2%, the viability at 20 µM was 99 ± 4% and the viability at 200 µM worked out at 122 ± 6%.
`Oc1cc(O)c2c(c1)O[C@H](c1ccc(O)c(O)c1)[C@H](O)C2` [compound 2, (−)-epicatechin] registered a concentration for half-maximal inhibition (IC50) in data set [2] (Influenza A virus, H1N1) greater than 200 µM. Moreover, in data set [2] (Influenza A virus), the inhibition at 2 µM amounted to 0%, the inhibition at 20 µM is 0% and the inhibition at 200 µM is 1 ± 1%. Also, the CC50 at 48 h in “in vitro” was greater than 200 µM. Also, in the data set on MDCK II cells, the viability at 2 µM was 101 ± 2%, the viability at 20 µM turned out to be 104 ± 4% and the viability at 200 µM came to 124 ± 20%.
On to `O=C(/C=C/c1ccc(O)c(O)c1)O[C@H](Cc1ccc(O)c(O)c1)C(=O)O` [compound 16, rosmarinic acid, reference compound], for which the half-inhibitory concentration (IC50) in data set [2] (Influenza A virus, H1N1) is greater than 200 µM. For the same compound, in data set [2] (Influenza A virus), the inhibition at 2 µM was 0%, the inhibition at 20 µM is 0% and the inhibition at 200 µM came out at 1 ± 1%. In the data set “in vitro”, this compound yielded a CC50 at 48 h greater than 200 µM. In the data set with MDCK II cells, the viability at 2 µM stood at 102 ± 1%, the viability at 20 µM was 103 ± 1% and the viability at 200 µM amounted to 102 ± 1%.
`Oc1cc(O)c2c(c1)O[C@H](c1ccc(O)c(O)c1)[C@H](O)[C@H]2c1c(O)cc(O)c2c1O[C@H](c1ccc(O)c(O)c1)[C@H](O)[C@H]2c1c(O)cc(O)c2c1O[C@H](c1ccc(O)c(O)c1)[C@H](O)[C@H]2c1c(O)cc(O)c2c1O[C@H](c1ccc(O)c(O)c1)[C@H](O)C2` [compound 11, epicatechin-(4β→8)-epicatechin-(4β→8)-epicatechin-(4β→8)-epicatechin] gave an IC50 in data set [2] (Influenza A virus, H1N1) of no more than 225 µM. Moreover, in data set [2] (Influenza A virus), the inhibition at 2 µM is 0%, the inhibition at 20 µM is 1% and the inhibition at 200 µM came to 44 ± 7%. Besides, in “in vitro” (dog), the CC50 at 48 h was greater than 200 µM. In the data set on MDCK II cells, the viability at 2 µM is 101 ± 6%, the viability at 20 µM came out at 86 ± 8% and the viability at 200 µM was 54 ± 9%.
With `Oc1cccc(O)c1O` [compound 18, pyrogallol, reference compound], the IC50 in data set [2] (Influenza A virus, H1N1) was no more than 241 µM. For the same compound, in data set [2] (Influenza A virus), the inhibition at 2 µM turned out to be 0%, the inhibition at 20 µM turned out to be 7 ± 3% and the inhibition at 200 µM worked out at 42 ± 1%. For the same compound, the CC50 at 48 h in the data set “in vitro” (dog) worked out at 176 µM. Further, in the data set on MDCK II cells, the viability at 2 µM stood at 98 ± 4%, the viability at 20 µM is 96 ± 1% and the viability at 200 µM is 43 ± 1%.
In the case of `O=C(O[C@@H]1Cc2c(O)cc(O)cc2O[C@@H]1c1ccc(O)c(O)c1)c1cc(O)c(O)c(O)c1` [compound 5, epicatechin-3-O-gallate], in data set [2] (Influenza A virus, H1N1), the IC50 was no more than 258 µM. In data set [2] (Influenza A virus), the inhibition at 2 µM was 0%, the inhibition at 20 µM worked out at 1% and the inhibition at 200 µM was 38 ± 2%. The CC50 at 48 h in the data set “in vitro” worked out at 175 µM. Further, in the data set with MDCK II cells, the viability at 2 µM stood at 107 ± 3%, the viability at 20 µM came to 106 ± 4% and the viability at 200 µM is 41 ± 2%.
